# Results as given in patent US9682995B2, “Amino-substituted isothiazoles” (BAYER PHARMA AKTIENGESELLSCHAFT, priority 2013, dated 2017).
# How the values were obtained:
# CDK2/CycE = CDK2/CycE (Homo sapiens (Human), UniProt P24941); assay: CDK2/CycE kinase assay (TR-FRET); assay type: biochemical; conditions: 10 μM ATP; read-out: CDK2 avg (IC50 [mol/l])
# Outline: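 GST-tagged human CDK2 and GST-CycE from Sf9 cells (~130 ng/ml) were preincubated with compound for 15 min at 22 °C. Reaction with 10 μM ATP and 0.75 μM biotinylated peptide (final) ran 25 min at 22 °C, pH 8.0. Phospho-peptide was read by TR-FRET (665/620 nm ratio, anti-pRB antibody, Eu donor) and normalised to no-enzyme and no-inhibitor controls.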
# [1] = tested on: spindle assembly checkpoint; assay: SAC-Formation - Paclitaxel-Induced Assay; assay type: cell-based; conditions: Homo sapiens; HeLa cells, paclitaxel 0.05 μM, 24 h, phosphorylated histone H3 on serine 10
# Outline: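 HeLa cells were plated overnight, then given paclitaxel (0.05 μM final) plus compound (0.005-20 μM, 0.5% DMSO) for 24 h at 37° C. Fixed cells were stained for phospho-histone H3 Ser10 and with Hoechst, then imaged to give mitotic index. A fall in mitotic cells marks SAC breakthrough, and values were fit with a four-parameter Hill equation.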
SMILES,IC50 (CDK2/CycE) [nM],IC50 [1] [nM]
"COC(=O)c1cnc(Nc2snc(C)c2C(=O)Nc2ccc(F)c(F)c2)cn1 [Example 59, Methyl 5-({4-[(3,4-difluorophenyl)carbamoyl]-3-methyl-1,2-thiazol-5-yl}amino)-pyrazine-2-carboxylate]",> 20000,260
"CCc1ccccc1NC(=O)c1c(C)nsc1Nc1ncccc1C(F)(F)F [Example 3, N-(2-Ethylphenyl)-3-methyl-5-{[3-(trifluoromethyl)pyridin-2-yl]amino}-1,2-thiazole-4-carboxamide]",> 20000,5100
"Cc1nsc(Nc2cnc3cc(C(F)(F)F)ccc3n2)c1C(=O)Nc1ccc(F)c(F)c1 [Example 60, N-(3,4-Difluorophenyl)-3-methyl-5-{[6-(trifluoromethyl)quinoxalin-2-yl]amino}-1,2-thiazole-4-carboxamide]",> 20000,42
"Cc1nsc(Nc2cnc3cc(C(F)(F)F)ccc3n2)c1C(=O)Nc1ccc(Cl)c(Cl)c1 [Example 61, N-(3,4-Dichlorophenyl)-3-methyl-5-{[6-(trifluoromethyl)quinoxalin-2-yl]amino}-1,2-thiazole-4-carboxamide]",> 20000,340

# More lines, now with the values ahead:
IC50 (CDK2/CycE) [nM],IC50 [1] [nM],SMILES
> 20000,350,"COc1ccc2nc(Nc3snc(C)c3C(=O)Nc3ccc(OC)nc3)sc2c1 [Example 87, 5-[(6-Methoxy-1,3-benzothiazol-2-yl)amino]-N-(6-methoxypyridin-3-yl)-3-methyl-1,2-thiazole-4-carboxamide]"
> 20000,52,"COc1ccc(NC(=O)c2c(C)nsc2Nc2cnc(C(F)(F)F)cn2)cn1 [Example 85, N-(6-methoxypyridin-3-yl)-3-methyl-5-{[5-(trifluoromethyl)pyrazin-2-yl]amino}-1,2-thiazole-4-carboxamide]"
> 20000,2300,"COc1ccc(NC(=O)c2c(C)nsc2Nc2nc3cccnc3s2)cn1 [Example 89, N-(6-Methoxypyridin-3-yl)-3-methyl-5-([1,3]thiazolo[5,4-b]pyridin-2-ylamino)-1,2-thiazole-4-carboxamide]"
8400,110,"Cc1nsc(Nc2cncc(-n3cccn3)n2)c1C(=O)Nc1ccc(F)c(F)c1 [Example 64, N-(3,4-Difluorophenyl)-3-methyl-5-{[6-(1H-pyrazol-1-yl)pyrazin-2-yl]amino}-1,2-thiazole-4-carboxamide]"
